Results reported in PubChem BioAssay (NCI).
Values joined by “and” are separate entries in the source; they are usually repeats but may differ in a detail not shown here. Identical values can stand only once.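 How tested: cells in 96-well plates exposed to compound for 48 hours at five concentrations. GI50 is the concentration that inhibits growth by half. At the TGI there is no net growth.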

How the values were obtained:
Assay in all cases: NCI anticancer screen, dose series, 48 h
[1] = system: CAKI-1 renal
[2] = system: DU-145 prostate
[3] = system: HCT-15 colon
[4] = system: HOP-62 NSCLC
[5] = system: MDA-MB-435
[6] = system: NCI-H23 lung
[7] = system: PC-3 prostate
[8] = system: SN12C renal
[9] = system: SW-620 colon
[10] = system: TK-10 renal

Row | Structure (SMILES) | GI50 [1] | TGI [1] [µM] | GI50 [2] | TGI [2] [µM] | GI50 [3] | TGI [3] | GI50 [4] | TGI [4] | GI50 [5] | TGI [5] | GI50 [6] | TGI [6] [µM] | GI50 [7] | TGI [7] [µM] | GI50 [8] | TGI [8] [µM] | GI50 [9] | TGI [9] [µM] | GI50 [10] | TGI [10]
1 | Cc1nc(-c2cn3c(n2)-c2ccc(-c4cnn(C(C)(C)C(N)=O)c4)cc2OCC3)n(C(C)C)n1 | 1 µM and 1.2 µM | > 100 | 1.72 µM and 2.15 µM | > 100 | 0.219 µM and 0.314 µM | 39.9 µM and > 10 µM | 0.726 µM and 4.51 µM | 60.4 µM and > 10 µM | 2.31 µM and 2.67 µM | 26.2 µM and > 10 µM | 13.8 µM and > 5.49 µM | > 100 | 0.249 µM and 0.374 µM | > 75.3 | 1.54 µM and 1.04 µM | > 100 | 8.08 µM and 3.48 µM | > 100 | 0.0722 µM and 0.0489 µM | 32.1 µM and > 10 µM
2 | O=c1[nH]c(=S)[nH]c2c1CN(CCCN1CCOCC1)CN2 |  | > 100 |  | > 100 |  | > 100 µM |  | > 100 µM |  | 69.6 µM |  | 54.4 |  | 57.1 |  | > 100 |  | > 100 |  | > 100 µM
3 | O=C(COc1cc(O)c2c(=O)cc(-c3ccccc3)oc2c1)Nc1ccccc1C(F)(F)F | 3.74 µM | 18.7 | 7.97 µM | > 100 | 3.28 µM | 21.1 µM | 2.62 µM | 8.19 µM | 6.03 µM | > 100 µM | 3.07 µM | 11.6 | 5.75 µM | > 100 | 4.02 µM | > 100 | 3.56 µM | > 100 | 1.88 µM | 3.71 µM
4 | Nc1nnnn1CCO |  | > 100 |  | > 100 |  | > 100 µM |  | > 100 µM |  | > 100 µM |  | > 100 |  | > 100 |  | > 100 |  | > 100 |  | > 100 µM
5 | CC(=O)c1c(C)[nH]c(-c2nc3ccc(N4CCN(C)CC4)cc3[nH]2)c1-c1ccc(N(C)C)cc1 | 0.309 µM | 13.9 | 5.37 µM | > 83.6 | 0.478 µM | 14.1 µM | 0.56 µM | 28.4 µM | 0.554 µM | 13.7 µM | 2 µM | 21.4 | 0.894 µM | 66.9 | 1.76 µM | 43.1 | 2.15 µM | 25.5 | 0.294 µM | 15.8 µM
6 | N=c1ccn(O)cc1/C=C1/C(=O)Nc2ccccc21 | > 100 µM | > 100 | > 100 µM | > 100 | > 100 µM | > 100 µM | > 100 µM | > 100 µM | > 100 µM | > 100 µM | > 100 µM | > 100 | > 100 µM | > 100 | > 100 µM | > 100 | > 100 µM | > 100 | > 100 µM | > 100 µM
7 | CCC(=C/[C@H](C)C/C=C/C(C)=C/[C@@H](C)C(=O)[C@@H](C)[C@H](O)[C@@H](C)CC)/C=C/[C@@H]1OC(=O)C=C[C@H]1C | < 0.01 µM | < 0.01 | < 0.01 µM | 4.42 | < 0.01 µM | 0.396 µM | < 0.01 µM | < 0.01 µM | < 0.01 µM | < 0.01 µM | < 0.01 µM | 4.03 | < 0.01 µM | 1.52 | < 0.01 µM | 1.41 | < 0.01 µM | 1.43 | < 0.01 µM | 1.52 µM
8 | C/C(=N\NS(=O)(=O)c1ccc(C)cc1)P(=O)(O)O |  | > 100 |  | > 100 |  | > 100 µM |  | > 100 µM |  | > 100 µM |  | > 100 |  | > 100 |  | > 100 |  | > 100 |  | > 100 µM
9 | Clc1ccc(-c2c3c(nn2-c2ccccn2)CCc2ccccc2-3)cc1Cl | > 100 µM | > 100 | > 100 µM | > 100 | > 100 µM | > 100 µM | 50.2 µM | > 100 µM | > 100 µM | > 100 µM | > 100 µM | > 100 | > 100 µM | > 100 | > 100 µM | > 100 | > 100 µM | > 100 | 65.6 µM | > 100 µM
10 | COc1cccc(NC(=O)c2sc3nc(C)c(C(O)c4ccccc4)cc3c2N)c1 (stereo not given) | 0.347 µM | 18 | 0.382 µM | 19.6 | 0.0924 µM | 12.4 µM | 0.481 µM | 26.2 µM | 0.0251 µM | 0.0751 µM | 0.401 µM | 15.8 | 0.49 µM | 22.3 | 0.421 µM | 17.6 | 0.228 µM | 27.1 | 2.03 µM | 65.1 µM
11 | CC(C)=CCC[C@](C)(O)[C@H]1CC[C@]2(C)[C@@H]1CC[C@@H]1[C@@]3(C)CC/C(=N/O)C(C)(C)[C@@H]3CC[C@]12C | 10.4 µM | 50.7 | 13.8 µM | > 100 | 10.6 µM | > 100 µM | 11.1 µM | 40.9 µM | 21.4 µM | > 100 µM | 8.68 µM | 41.7 | 7.87 µM | 35.9 | 8.48 µM | 35.2 | 6.98 µM | > 100 | 18 µM | 63.5 µM
12 | C#CCSc1cc(Cl)c(C)cc1S(=O)(=O)Nc1nc2ccccc2o1 | 26.3 µM | 67.9 | 37.9 µM | > 100 | 31.5 µM | 90 µM | 29 µM | 65.6 µM | 27.8 µM | 62.9 µM | 35.9 µM | 87.8 | 32.6 µM | > 100 | 43.5 µM | > 100 | 46.7 µM | > 100 | 48.5 µM | > 100 µM
13 | COc1cc(NCCCN=C(N)NC(N)=NC(C)C)c2ncccc2c1 | > 100 µM | > 100 | 33.9 µM | > 100 | > 100 µM | > 100 µM | 35.2 µM | > 84.8 µM | 17.7 µM | 35 µM | 3.02 µM | 29.6 | 6 µM | 35.5 | 3.51 µM | 27.2 | 11.6 µM | > 63.5 | 15.7 µM | 46.1 µM
